From article PMC3913620, “Preclinical Evaluation of the Novel, Orally Bioavailable Selective Inhibitor of Nuclear Export (SINE) KPT-335 in Spontaneous Canine Cancer: Results of a Phase I Study” (PLoS ONE, 2014)

Key:
Oral bioavailability = assay type: in vivo; conditions: normal laboratory dogs
[1] = Single oral dose pharmacokinetics in healthy dogs; assay type: in vivo; conditions: male, beagle, dog, plasma, 1.5 mg/kg single oral dose, fed, 6 dogs
Method: KPT-335 was administered as a single oral dose in capsule formulation to 6 male beagle dogs at approximately 1.5 mg/kg following a meal. Serial blood samples were collected from each dog prior to dosing and at 0.25, 0.5, 1, 2, 4, 6, 8, 12, 18, 24 and 48 hours post-dose and placed into tubes containing K2EDTA. Blood samples were stored on wet ice until processed to plasma by centrifugation at 3500 rpm for 10 minutes at 5°C. Plasma samples were stored in at −80°C until analysis at Agilux Laboratories (Worcester, MA). Plasma samples were analyzed for parent drug concentration using sample preparation by protein precipitation and then analysis by LC-MS/MS using propranolol as the internal standard. The method was qualified for use (a single batch to assess method performance: precision and accuracy; linearity of dilution; and matrix specificity) prior to initiation of sample analysis. Acceptance criteria for calibration standards and quality control samples were within ±30% nominal concentration. Individual animal pharmacokinetic parameter values were derived by the pharmacokinetic analysis program Phoenix WinNonlin version 6.3 (Pharsight Corporation), using the non-compartmental Model 200 with uniform weighting. The single-dose pharmacokinetic parameters assessed include: Cmax (maximum concentration observed); Tmax (time of observed maximum concentration); AUC0→∞ (area under the concentration-time curve from time zero extrapolated to infinity); AUC0→last (area under the concentration-time curve from time zero to the time of the last quantifiable concentration); and t1/2 (terminal half life). Descriptive statistical data (mean, standard deviation, and standard error of the mean) were calculated from the unrounded numbers in an Excel (Microsoft) spreadsheet. Concentration results, means, and calculated parameters were reported to 3 significant figures.

[2] = tested on: canine melanoma cell lines; assay: Proliferation and viability of canine melanoma cell lines (data not shown); assay type: cell-based; conditions: Canis lupus familiaris, read-out: IC50 concentrations, canine melanoma cell lines
OCI-Ly3 DLBCL cells = assay: MTS cell viability assay, OCI-Ly3; assay type: cell-based, human; conditions: Homo sapiens, OCI-Ly3, 72 hours, read-out: IC50 (± S.D.), OCI-Ly3
Method: Cryopreserved tumor cells obtained from sterile lymph node biopsy samples from dogs with diffuse large B cell lymphoma (DLBCL) were cultured with 100 ng/mL of megaCD40L (Enzo Life Science, Plymouth Meeting, PA) as previously described, [27]. The human T-cell leukemia cell line, Jurkat, was from the American Type Culture Collection (ATCC, Manassas, VA) and cultured in RPMI1640 medium (Gibco/BRL, Grand Island, NY) containing 10% fetal bovine serum (FBS; Atlas Biologicals, Fort Collins, CO), 2-mercaptoethanol (Gibco/BRL), HEPES, L-glutamine, sodium pyruvate (Mediatech Inc., Manassas, VA), non-essential amino acids (Sigma Aldrich, St. Louis, MO), and Primocin (Invivogen, San Diego, CA). […]
(§1) Cell viability for lymphoid lines was determined by the MTS (3-(4, 5-dimethylthiazol-2-yl)-5-(3-carboxymethoxyphenyl)-2-(4-sulfophenyl)-2H-tetrazolium) assay using CellTiter 96® AQueous One Solution Cell Proliferation Assay Kit (Promega, Madison, WI). […] After 72 hours, 20 µL of MTS solution was added to each well and cells were incubated for another 4 hours before measuring absorbance at 490 nm using a Wallac Victor 1420 Multilabel Counter (Perkin Elmer, Waltham, MA). The IC50 of SINE was calculated using Prism 6 software (GraphPad Software, Inc., La Jolla, CA).

[3] = tested on: primary canine DLBCL cells; assay: Annexin V apoptosis assay (flow cytometry), primary canine DLBCL; assay type: cell-based; conditions: primary canine DLBCL (sample #1), 100 nM, 24 hours
Method: Jurkat cells and primary canine DLBCL cells were cultured for 24 hours in the presence of 100 nM KPT-335 or dimethyl sulfoxide (DMSO). Cells were stained with Annexin V (eBiosciences, San Diego, CA) according to the manufacturer’s instruction. Flow cytometry was performed using a BD LSRII flow cytometer (BD Immunocytometry Systems, San Jose, CA) and results were analyzed using FlowJo software (Tree Star, Ashland, OR).

[4] = Owner-assessed quality of life questionnaire; assay type: in vivo, dogs
Description: A tool to assess quality of life in dogs with cancer during treatment has been previously published. This was used to assess owner perceived changes in dogs undergoing KPT-335 treatment during both the dose escalation and dose expansion studies. An overall quality of life (QOL) score was created based on answers to the questions on the quality of life questionnaire. The scores from each question were summed resulting in an overall quality of life score which could range from 23 to 115. Trends in Quality of Life (QOL) during the study were examined using linear mixed models containing fixed effects of time and an autoregressive correlation structure for the random errors. Wald tests were used to test for a significant change in QOL with degrees of freedom calculated using the Kenward-Roger method. Measurements obtained after 90 days were not included in the analysis for the dose escalation study and measurements after 70 days were not included in the analysis of the dose expansion data due to few data points after those time points.

Jurkat cells = assay: MTS cell viability assay, Jurkat; assay type: cell-based, human; conditions: Homo sapiens, Jurkat, 72 hours, read-out: IC50 (± S.D.), Jurkat
Method: Cryopreserved tumor cells obtained from sterile lymph node biopsy samples from dogs with diffuse large B cell lymphoma (DLBCL) were cultured with 100 ng/mL of megaCD40L (Enzo Life Science, Plymouth Meeting, PA) as previously described, [27]. The human T-cell leukemia cell line, Jurkat, was from the American Type Culture Collection (ATCC, Manassas, VA) and cultured in RPMI1640 medium (Gibco/BRL, Grand Island, NY) containing 10% fetal bovine serum (FBS; Atlas Biologicals, Fort Collins, CO), 2-mercaptoethanol (Gibco/BRL), HEPES, L-glutamine, sodium pyruvate (Mediatech Inc., Manassas, VA), non-essential amino acids (Sigma Aldrich, St. Louis, MO), and Primocin (Invivogen, San Diego, CA). The canine DLBCL cell line CLBL1 obtained from Dr. Barbara Rütgen (University of Vienna, Austria), [29] and human DLBCL cell lines OCI-Ly3 [30], [31] and OCI-Ly10 [32] obtained from Dr. Anne Novak (Mayo Clinic Cancer Center, Rochester, MN) were cultured in complete Iscove’s Modified Dulbecco’s medium (IMDM) containing 20% FBS, L-glutamine, and Primocin. All cells were maintained at 37°C in a humidified 5% CO2 atmosphere. The following additional canine tumor cell lines were used to evaluate response to SINE compounds: C2, mast cell tumor line provided by Dr. George Caughey, UCSF, San Francisco, CA [33]; OSA16, osteosarcoma cell line, provided by Dr. Jaime Modiano, UM, Minneapolis, MN [34]; and 323610-3, malignant melanoma cell line, provided by Dr. Michael Kent, UCD, Davis, CA [35]. […]
as §1

CLBL1 cells = assay: Annexin V apoptosis assay (flow cytometry), CLBL1; assay type: cell-based, canine; conditions: CLBL1, 100 nM, 24 hours
[5] = Tolerability in normal laboratory dogs (data not shown); conditions: dog, in vivo

With `O=C(/C=C\n1cnc(-c2cc(C(F)(F)F)cc(C(F)(F)F)c2)n1)NNc1ccccn1` [KPT-335] the oral bioavailability (Oral bioavailability) was “excellent oral bioavailability”, the Cmax ([1]; po, 1.5 mg/kg, capsule) was ~0.25 µg/mL and the Tmax ([1]; po, 1.5 mg/kg, capsule) was ~4 h. It also gave an AUC [1] of 1.8 µg·h/mL, an AUC(0-inf) ([1]; capsule) of 1.81 µg·h/mL and an AUC(0-t) ([1]; capsule, read-out: AUC0-last, mean) of 1.76 µg·h/mL. The half-life ([1]; capsule, read-out: t1/2, mean (converted)) was 3.88 h, the IC50 [2] was 95 to 290 nM and the IC50 (OCI-Ly3 DLBCL cells) was 2.1 ± 1.3 nM. For the same compound, the “apoptotic cells (Annexin V+ cells) compared to mock treated cells” value [3] was “increased apoptotic cells”, the “overall quality of life” value ([4]; dose escalation study, p = 0.64) was “did not change significantly” and the “overall quality of life” value ([4]; dose expansion study, p = 0.47) was “did not change significantly”. The IC50 (Jurkat cells) was 0.3 nM, the “apoptotic cells (Annexin V+ cells) compared to mock treated cells” value (CLBL1 cells) was “increased apoptotic cells” and the MTD [5] was 2 mg/kg.
